Experimental data: US20250011790A1, “COMBINED TARGETING OF STAT3 AND ULKI TO TREAT GLIOBLASTOMA” (Vanderbilt University, priority 2021, published 2025)

Tests used:
AMPKα = assay: Western blot of p-AMPKα T172 in MT330 cells; format: cell-based; settings: Baf 100 nM, 3 h
Experimental: FIGS. 1A to 1H show STAT3 deletion activates autophagy through AMPKα-ULK1-TSC2 signaling pathways in MT330 cells. […] Untreated (UT) cells served as controls. Total cell lysates were prepared and immunoblotted with indicated antibodies. […] Blots were stripped and probed for total-AMPKα. […] Blots were stripped and probed for total-ULK1. […] Blots were stripped and probed with total-TSC2 antibody.
(§1) Cell lysates were prepared using mammalian protein extraction buffer (Cell Signaling Technology) and a protease inhibitor cocktail followed by SDS-PAGE. Proteins were transferred to Immobilon-P membranes (Millipore Bedford) and probed with primary antibodies overnight at 4° C. in TBS buffer containing 0.1% Tween-20 and 5% nonfat dry milk (Bio-Rad). Membranes were subsequently incubated with horseradish peroxidase-conjugated secondary antibodies at room temperature for 1 h, and the immunocomplexes were visualized by the ECL detection system (Perkin Elmer) quantified on the Azure Biosystems C500. Membranes were stripped and re-probed for actin or GAPDH as loading controls. Representative Western blots from three experiments are shown. Densitometric analysis of all Western blots was performed using Image J software.

ULK1 = target: T1, ULK1 (Homo sapiens, UniProt O75385); assay: Western blot of ULK1 signaling (p-ATG14, p-Beclin1, p-ULK1) in MT330 cells; format: cell-based; settings: Baf 100 nM, 3 h
T1 sequence (O75385 1-1050): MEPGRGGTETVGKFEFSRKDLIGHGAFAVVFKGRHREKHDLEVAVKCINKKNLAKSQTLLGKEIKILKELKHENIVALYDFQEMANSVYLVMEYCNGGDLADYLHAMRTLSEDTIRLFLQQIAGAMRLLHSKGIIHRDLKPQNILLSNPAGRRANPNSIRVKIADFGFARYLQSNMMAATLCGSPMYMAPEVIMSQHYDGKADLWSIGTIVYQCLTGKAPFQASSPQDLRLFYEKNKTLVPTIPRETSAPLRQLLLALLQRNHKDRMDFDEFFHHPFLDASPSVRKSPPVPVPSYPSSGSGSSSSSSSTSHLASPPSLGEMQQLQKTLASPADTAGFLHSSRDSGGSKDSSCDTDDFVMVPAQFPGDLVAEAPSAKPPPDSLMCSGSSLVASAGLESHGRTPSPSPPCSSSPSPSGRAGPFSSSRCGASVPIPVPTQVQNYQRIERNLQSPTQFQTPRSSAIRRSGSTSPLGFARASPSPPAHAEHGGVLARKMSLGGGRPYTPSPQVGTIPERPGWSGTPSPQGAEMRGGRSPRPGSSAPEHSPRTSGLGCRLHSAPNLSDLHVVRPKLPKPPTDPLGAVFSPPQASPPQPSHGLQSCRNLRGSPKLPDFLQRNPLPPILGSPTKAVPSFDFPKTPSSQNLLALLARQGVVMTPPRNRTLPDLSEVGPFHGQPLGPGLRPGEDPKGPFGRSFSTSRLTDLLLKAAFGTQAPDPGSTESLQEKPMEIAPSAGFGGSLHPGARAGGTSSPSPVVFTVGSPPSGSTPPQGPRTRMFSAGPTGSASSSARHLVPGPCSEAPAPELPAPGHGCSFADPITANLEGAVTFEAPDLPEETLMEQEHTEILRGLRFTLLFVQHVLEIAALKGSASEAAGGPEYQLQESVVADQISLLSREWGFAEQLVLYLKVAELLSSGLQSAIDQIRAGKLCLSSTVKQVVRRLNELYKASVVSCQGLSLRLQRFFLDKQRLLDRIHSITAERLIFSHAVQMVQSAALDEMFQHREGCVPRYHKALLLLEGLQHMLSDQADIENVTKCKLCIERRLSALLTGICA

MT330 cells [1] = assay: Immunolocalization of LC3 and p62 in MT330 cells; format: cell-based
Experimental: EV MT330 cells, STAT3-KO, STAT3-KO cells rescued with WT-STAT3, were grown on chamber slides, and treated with or without 1 μM Baf for 48 h. Cells were fixed and immunostained for LC3, p62, and counterstained with DAPI, and analysed by confocal microscopy. Scale bar […].
Cells were cultured in chamber slides (Millipore) to ˜70% confluence and washed with PBS. Cells were fixed in 4% paraformaldehyde and methanol, and permeabilized with 1% Triton X-100. After blocking with 5% goat serum, cells were incubated with anti-rabbit LC3 and anti-mouse p62 antibodies and subsequently stained with Alexa Fluor 488 (goat anti-rabbit) and Alexa Fluor 633 (goat anti-mouse) secondary antibodies, as described previously. 24 DNA was counterstained with Vectashield mounting media with DAPI (Vectra Laboratories). Images were captured on a Zeiss LSM700 laser scanning confocal microscope.

MT330 cells [2] = assay: Western blot of LC3-II and p62 (autophagy flux) in MT330 cells; format: cell-based
Experimental: FIGS. 3A to 3H show STAT3-KO activates autophagy through mTOR-independent but Prom1-dependent signalling pathways in MT330 cells. […] Cell lysates were analysed for LC3-I/II, p62 and CathepsinD.
(§2) FIGS. 3B and 3C show quantification of LC3-II/Actin ratio (FIG. 3B) and p62/Actin ratio (FIG. 3C). […] Cell lysates were immunoblotted with the indicated antibodies and beta actin was used as an internal loading control. […] Cell lysates were analyzed by Western blotting using antibodies specific for STAT3, Prom1 and LC3-I/II.
(§3) Total cell lysates were immunoblotted with indicated antibodies with p-Actin serving as a loading control. FIGS. 6B to 6E show quantification of the ratio of phospho- and total-ATG14 (FIG. 6B); phospho- and total-Beclin1 (FIG. 6C); phospho- and total-ULK1 (FIG. 6D); and LC3-II and Actin (FIG. 6E).
(§4) ULK1 knockdown was verified by Western blotting with ULK1 and phospho-ULK1, and cell lysates were analysed for LC3, cleaved caspase-3 with p-Actin as a loading control. FIGS. 7B to 7D show quantification of the ratio of total-ULK1 and Actin (FIG. 7B); LC3-II and Actin (FIG. 7C); active caspase-3 and Actin (FIG. 7D).
as §1

mTORC1 = assay: Western blot of mTOR S2448 and S6 phosphorylation in MT330 cells; format: cell-based
Experimental: as §2, §3, §1

AMPK = settings: cited from earlier work
autophagy = settings: cited from earlier work
mTORC1 and AMPK = settings: cited from earlier work
MT330 cells [3] = assay: Caspase-3 cleavage Western blot (apoptosis) in MT330 cells; format: cell-based; settings: MRT68921 20 μM, 5 h
Experimental: as §3, §4
as §1, with “Densitometric analysis of all Western blots was performed using Image J software.” left out

MT330 cells [4] = assay: Cell death ELISA (DNA fragmentation) in MT330 cells; format: cell-based; settings: STAT3-KO and mutant expressing cells vs control cells, MRT68921 20 μM, 5 h
Experimental: as §3, §4
The quantitative DNA fragmentation assay was performed using a cell death ELISA kit as described earlier (Bhattacharya S, et al. Apoptosis. 2014 19(3):451-466). […] Cells were lysed, and an aliquot of the nuclei-free supernatant was placed in streptavidin-coated plates and incubated with anti-histone biotin and anti-DNA peroxidase-conjugated antibodies for 2 h at room temperature. After incubation, the samples were aspirated, and the wells were washed 3 times with incubation buffer. […] The absorbance was read at 405 nm using the SpectraMax iD3 microplate reader (Molecular Devices). Results were expressed as absorbance at 405 nm/mg protein/min.

[5] = tested on: hepatocellular carcinoma (HCC) cells; settings: cited from earlier work
[6] = EV MT330 cells, Everolimus (RAD001) 10 μM, 3 h

**Q.** What does the source list for `CO/C1=C\C(C)=C\[C@@H](C)[C@@H](O)[C@@H](C)C/C(C)=C/C=C/[C@H](OC)[C@@H]([C@@H](C)[C@@H](O)[C@H](C)[C@@]2(O)C[C@@H](O)[C@H](C)[C@@H](C(C)C)O2)OC1=O` [Bafilomycin, Bafilomycin A1]?
**A.** AMPKα phosphorylation (AMPKα): no effect; ULK1 phosphorylation (ULK1): no effect; LC3 and p62 staining (MT330 cells [1]; EV MT330 cells, Baf 1 μM, 48 h): no effect; LC3+ and p62 puncta formation and co-localization (MT330 cells [1]; STAT3-KO MT330 cells, bafilomycin 48 h): increased; LC3-II levels (MT330 cells [2]; MT330 cells expressing the S727A mutant, Baf 100 nM, 3 h): did not significantly change; p62 accumulation (MT330 cells [2]; STAT3-KO MT330 cells, Baf 100 nM, 3 h): partially increased; LC3-II levels (MT330 cells [2]; STAT3-deleted MT330 cells, Baf 100 nM, 3 h): further increased; LC3-II levels (MT330 cells [2]; control MT330 EV cells, Baf 100 nM, 3 h): no effect

**Q.** For `CO[C@H]1C[C@@H]2CC[C@@H](C)[C@@](O)(O2)C(=O)C(=O)N2CCCC[C@H]2C(=O)O[C@H]([C@H](C)C[C@@H]2CC[C@@H](OCCO)[C@H](OC)C2)CC(=O)[C@H](C)/C=C(\C)[C@@H](O)[C@@H](OC)C(=O)[C@H](C)C[C@H](C)/C=C/C=C/C=C/1C` [Everolimus, everolimus], which “autophagy induction (LC3-II/Actin ratio)” value (MT330 cells [2]; [6]) is on record?
**A.** The value was “no significant effect”.

**Q.** What about the autophagic flux (MT330 cells [2]; cells lacking STAT3 and STAT3-KO cells expressing STAT3 phosphodeficient mutants, Everolimus 10 μM ± Baf 100 nM, 3 h) of the same molecule?
**A.** The autophagic flux was “enhances autophagic flux”.

**Q.** What about the “mTOR S2448 phosphorylation” value (mTORC1; [6]) of the same molecule?
**A.** Its value is “inhibited”.

**Q.** What about the “pS6K phosphorylation (downstream target of mTORC1)” value (mTORC1; [6]) of the same molecule?
**A.** Its value is “inhibited”.

**Q.** For `CCn1c(-c2nonc2N)nc2c(C#CC(C)(C)O)ncc(OC[C@H]3CCCNC3)c21` [GSK690693], which IC50 (AMPK) is on record?
**A.** Its IC50 is 50 nM.

**Q.** Which “effect on autophagy / autophagic flux” value (autophagy) does the source give for `O=C1Nc2ccc(C(=O)c3ccco3)cc2/C1=C/c1cc(Cl)c(O)c(Cl)c1` [GW406108X] here?
**A.** The value was “blocks autophagic flux”.

**Q.** And the “effect on upstream signaling kinases mTORC1 and AMPK” value (mTORC1 and AMPK)?
**A.** Its value is “without affecting”.

**Q.** For `Cl.O=C(NCCCNc1nc(Nc2cccc(CN3CCOCC3)c2)ncc1C1CC1)C1CCC1` [MRT67307 hydrochloride], which “effect on autophagy / autophagic flux” value (autophagy) is on record?
**A.** Its value is “blocks autophagy”.

**Q.** For `CN1CCc2cc(Nc3ncc(C4CC4)c(NCCCNC(=O)C4CCC4)n3)ccc2C1` [MRT68921], which “effect on autophagy / autophagic flux” value (autophagy) is on record?
**A.** The value was “blocks autophagy flux”.

**Q.** And the “apoptosis by caspase-3 cleavage” value (MT330 cells [3]; STAT3-KO and STAT3-mutant expressing lines)?
**A.** Its value is “induced apoptosis”.

**Q.** And the “apoptosis by caspase-3 cleavage” value (MT330 cells [3]; control EV and WT-STAT3 reconstituted cells)?
**A.** The value was “not”.

**Q.** And the “apoptotic cell death (DNA fragmentation) by ELISA” value (MT330 cells [4])?
**A.** The value was “significantly increased apoptosis”.

**Q.** And the LC3-II levels (MT330 cells [2]; STAT3-KO cells and Y705F or S727A mutant cells, MRT68921 20 μM, 5 h)?
**A.** The LC3-II levels was “significantly increased”.

**Q.** What about the autophagy flux (MT330 cells [2]; cells lacking functional STAT3, MRT68921 20 μM ± Baf 100 nM, 5 h) of the same molecule?
**A.** The autophagy flux was “blocks autophagy flux”.

**Q.** What about the “mTOR S2448 phosphorylation” value (mTORC1; MT330 cells, MRT68921 20 μM, 5 h) of the same molecule?
**A.** The value was “did not significantly block”.

**Q.** Which “effect on autophagy / autophagic flux” value (autophagy) does the source give for `COC(=O)c1cc2c(OC(C)C)cc(OC(C)C)cc2[nH]1` [XST-14] here?
**A.** The value was “induces autophagy inhibition”.

**Q.** And the “apoptosis in hepatocellular carcinoma (HCC) cells” value [5]?
**A.** The value was “induces apoptosis”.
